Laboratory results as given in BigSolDB 2.1.

O=CC(NS(=O)(=O)[O-])C(O)C(O)C(O)CO.[Na+] (stereo unspecified)
solubility (mole fraction)
Conditions | 288.15 K | 293.15 K | 298.15 K | 303.15 K | 308.15 K | 313.15 K | 318.15 K
in ethanol | 8e-05 | 0.00012 | 0.00021 | 0.00027 | 0.00035 | 0.00046 | 0.00055
in methanol | 0.0004 | 0.00046 | 0.00052 | 0.00058 | 0.00064 | 0.0007 | 0.00076
in water | 0.0315 | 0.0345 | 0.0388 | 0.0444 | 0.0514 | 0.0601 | 0.0727
